Measurements: the supplement of paper PMC10307832

Key:
Assay in all cases: relative viability (nuclei count vs DMSO), 5 days (fraction); higher = more cells survive
Imatinib + Phenformin = compound: Cc1ccc(NC(=O)c2ccc(CN3CCN(C)CC3)cc2)cc1Nc1nccc(-c2cccnc2)n1 [Imatinib] + N=C(N)NC(=N)NCCc1ccccc1 [Phenformin] (partner 250 µM)
Procedure, shortened: (§1)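 One day after seeding in 1536-well plates, lung cancer cell lines were dosed by pin tool. Dosing was either single-drug or a fixed anchor-drug dose plus five library-drug doses (not always all listed) in √10 steps. After 5 days, nuclei were stained in one fix-and-stain step and counted on 4× images, and relative viability is the nuclei count of treated wells over that of vehicle wells, given as the median of duplicate plates.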

Imatinib + Decitabine = compound: Cc1ccc(NC(=O)c2ccc(CN3CCN(C)CC3)cc2)cc1Nc1nccc(-c2cccnc2)n1 [Imatinib] + Nc1ncn([C@H]2C[C@H](O)[C@@H](CO)O2)c(=O)n1 [Decitabine] (partner 2 µM)
Procedure, shortened: as §1

Imatinib + Vorinostat = compound: Cc1ccc(NC(=O)c2ccc(CN3CCN(C)CC3)cc2)cc1Nc1nccc(-c2cccnc2)n1 [Imatinib] + O=C(CCCCCCC(=O)Nc1ccccc1)NO [Vorinostat] (partner 1 µM)
Procedure, shortened: as §1

Imatinib + Olaparib = compound: Cc1ccc(NC(=O)c2ccc(CN3CCN(C)CC3)cc2)cc1Nc1nccc(-c2cccnc2)n1 [Imatinib] + O=C(c1cc(Cc2n[nH]c(=O)c3ccccc23)ccc1F)N1CCN(C(=O)C2CC2)CC1 [Olaparib] (partner 8 µM)
Procedure, shortened: as §1

Cell Line: UMC-11
- relative viability (Imatinib + Phenformin; first compound 0.02 µM): 0.331
- relative viability (Imatinib + Phenformin; first compound 0.06325 µM): 0.327
- relative viability (Imatinib + Phenformin; first compound 0.2 µM): 0.322
- relative viability (Imatinib + Phenformin; first compound 0.6325 µM): 0.332
- relative viability (Imatinib + Phenformin; first compound 2 µM): 0.294
- relative viability (Imatinib + Decitabine; first compound 0.02 µM): 0.554
- relative viability (Imatinib + Decitabine; first compound 0.06325 µM): 0.615
- relative viability (Imatinib + Decitabine; first compound 0.2 µM): 0.59
- relative viability (Imatinib + Decitabine; first compound 0.6325 µM): 0.619
- relative viability (Imatinib + Decitabine; first compound 2 µM): 0.683
- relative viability (Imatinib + Vorinostat; first compound 0.02 µM): 0.35
- relative viability (Imatinib + Vorinostat; first compound 0.06325 µM): 0.377
- relative viability (Imatinib + Vorinostat; first compound 0.2 µM): 0.36
- relative viability (Imatinib + Vorinostat; first compound 0.6325 µM): 0.412
- relative viability (Imatinib + Vorinostat; first compound 2 µM): 0.369
- relative viability (Imatinib + Olaparib; first compound 0.02 µM): 0.352
- relative viability (Imatinib + Olaparib; first compound 0.06325 µM): 0.514
- relative viability (Imatinib + Olaparib; first compound 0.2 µM): 0.366
- relative viability (Imatinib + Olaparib; first compound 0.6325 µM): 0.41
- relative viability (Imatinib + Olaparib; first compound 2 µM): 0.301
